The nature of one series: cytotoxicity assay (MTT). The conditions noted are these: human, Lunet/HuH7 cells, 2 days of incubation, mean of duplicates; for CC50 at 48 h: huh-7/lunet cells; for CC50 at 2 days: Huh-7/Lunet cells (cured HCV replicon cells). In kind it is cell-based. An excerpt:
(§1) To analyze the antiviral activity of the compounds, we used a stable cell line, LucUbiNeo-ET, that contains a subgenomic HCV genotype 1b replicon, I389/NS3-3'/ LucUbiNeo-ET, that express luciferase constitutively (Krieger et al, JVI 2001; 75:4614; Frese et al., JGV 2003; 84: 1253-1259). To evaluate the cellular toxicity, we use other cell line, Huh-7/Lunet (Friebe et al., JVI 2005; 79: 380-392), that originally carried a selectable luciferase HCV 1b replicon and was cured by treatment with an HCV-specific inhibitor. These cells are characterized by high permissiveness for HCV RNA replication. LucUbiNeo-ET cell line was cultured at 37°C in a humidified atmosphere with 5% CO2 in Dulbecco's modified Eagle medium (D-MEM) supplemented with high glucose concentration (4.5g/l) (Invitrogen), 10% (vol/vol) heat-inactivated fetal bovine serum (Hyclone, Cultek), 2mM L-Glutamine (Sigma-aldrich), 1mM sodium pyruvate (Sigma-aldrich), 1% MEM NEEA (Sigma-aldrich), and 0.5 mg/ml of Geneticin (G418) (Gibco, Invitrogen). Cured or Huh-7/Lunet cell line was maintained at the same conditions as described above without the addition of Geneticin.
(§2) Antiviral activity was carried out in white-clear bottom 96-well plates, and cytotoxicity assays were performed in clear 96-well plates. Cells were seeded at a density of 10^4/well in 100ul D-MEM without selection of antibiotics. After 24h, nine fivefold serial dilution of compounds, with 3 replicates at each dilution, were prepared in D-MEM and added to the appropriate wells, yielding concentrations of 125 to 0,00032 ug/ml in a final volume of 100 ul of D-MEM. Following 2 days of incubation, we determined the antiviral activity (EC50) by quantifying the luciferase with the Luciferase Bright Glo assay (Promega). Briefly, LucUbiNeo-ET cells were harvested with the addition of 100 ul of luciferase per well, and after 2 minutes of shaking, the light was read in a Luminometer Fluoroskan Ascent FL. Toxicity (CC50) was analysed in the Lunet/HuH7 cells by the addition of 10 ul of MTT (3-(4,5-dimethylthiazol-2-yl)-2,5-diphenyltetrazolium bromide) per well. After 4h of incubation at 37°C in a humidified atmosphere with 5% CO2, the amount of formazan produced was quantified spectrophotometrically at 550/620 nm [C. Pannecouque et al, Nature protocol 2008; 3 (3): 427-434]. The EC50 and CC50 values were calculated for each compound. These assays were done in duplicate and the results shown in Table 1 represent the mean value of these duplicates.

Series [1] deals with subgenomic HCV genotype 1b replicon, I389/NS3-3'/ LucUbiNeo-ET. Briefly: in vitro antiviral activity: luciferase assay in LucUbiNeo-ET HCV replicon cells. It counts as cell-based. The conditions noted are these: Hepatitis C virus, 48 h, 2 days of incubation, luciferase readout, mean of duplicates.
From the text: as §1, §2
(In general: In antiviral work, replicon cells carry a viral genome segment that copies itself.)

Where only a bound is given, the exact number is not on record here.

For orientation: CC50 means the concentration that lowers cell viability or growth by half. Lower therefore signals greater toxicity to the cells. As usually defined, the EC50 is the midpoint of the concentration-response curve. For `O=C1Nc2nc(Oc3ccccc3)nc(On3nnc4ccccc43)c2CC1c1ccc(F)cc1` (stereo not drawn) [Example 3, 4-((1H-benzo[d][1,2,3]triazol-1-yl)oxy)-6-(4-fluorophenyl)-2-phenoxy-3,4,5,6-tetrahydropyrido[2,3-d]pyrimidine-7(8H)-one], the CC50 at 48 h in “cytotoxicity assay (MTT)” is at least 25 µM. Further, the EC50 in series [1] was in the range of 5 to 22 µM.

In “cytotoxicity assay (MTT)”, `O=C1Nc2nc(Nc3ccccc3)nc(On3nnc4ccccc43)c2CC1c1ccc(F)cc1` (stereo not drawn) [Example 4] gave a CC50 at 48 h of 10 to 25 µM. This compound also showed an EC50 in series [1] of 1 to 5 µM.

In turn, `O=C1Nc2nc(Nc3ccccc3)nc(On3nnc4ccccc43)c2CC1c1ccc(Cl)cc1Cl` (stereo not drawn) [Example 6, 4-((1H-benzo[d][1,2,3]triazol-1-yl)oxy)-6-(2,4-dichlorophenyl)-2-(phenylamino)-5,6-dihydropyrido[2,3-d]pyrimidine-7(8H)-one] had a CC50 at 2 days in the series “cytotoxicity assay (MTT)” below 10 µM. Besides, in series [1], the EC50 was 1 to 5 µM.

On to `CCCOCCNc1nc(Nc2ccccc2)nc2c1CC(c1c(Cl)cccc1Cl)C(=O)N2` (stereo not drawn) [Example 11, 6-(2,6-dichlorophenyl)-2-(phenylamino)-4-((2-propoxyethyl)amino)-5,6-dihydropyrido[2,3-d]pyrimidine-7(8H)-one], for which, in the series “cytotoxicity assay (MTT)”, the CC50 at 2 days was at least 25 µM. The same compound yielded an EC50 in series [1] of 5 to 22 µM.

Compound `COCCOc1nc(N)nc2c1CC(c1c(Cl)cccc1Cl)C(=O)N2` (stereo not drawn) [Example 13, 2-amino-6-(2,6-dichlorophenyl)-4-(2-methoxyethoxy)-5,6-dihydropyrido[2,3-d]pyrimidine-7(8H)-one] returned a CC50 at 2 days in “cytotoxicity assay (MTT)” of at least 25 µM. This compound also showed an EC50 in series [1] of 5 to 22 µM.

On to `O=C1Nc2nc(Nc3ccccc3)[nH]c(=O)c2CC1c1ccccc1` (stereo not drawn) [Example 18, 6-phenyl-2-(phenylamino)-5,6-dihydropyrido[2,3-d]pyrimidine-4,7(3H,8H)-dione], for which the CC50 at 2 days in the series “cytotoxicity assay (MTT)” is at least 25 µM. In series [1], this compound displayed an EC50 of 1 to 5 µM.

Take `O=C1Nc2nc(Nc3ccccc3)[nH]c(=O)c2CC1c1cccc2ccccc12` (stereo not drawn) [Example 20, 6-(naphthalen-1-yl)-2-(phenylamino)-5,6-dihydropyrido[2,3-d]pyrimidine-4,7(3H,8H)-dione]: the CC50 at 2 days in “cytotoxicity assay (MTT)” was 10 to 25 µM. Besides, the EC50 in series [1] was in the range of 5 to 22 µM.

Consider `O=C1Nc2nc(NCc3ccccc3)[nH]c(=O)c2CC1c1c(Cl)cccc1Cl` (stereo not drawn) [Example 22, 2-(benzylamino)-6-(2,6-dichlorophenyl)-5,6-dihydropyrido [2,3-d]pyrimidine-4,7(3H,8H)-dione], for which the CC50 at 2 days in the series “cytotoxicity assay (MTT)” was at least 25 µM. In addition, in series [1], the EC50 is 5 to 22 µM.

As to `CCCOCCNc1nc(N)nc2[nH]c(=O)c(-c3ccc(F)cc3)cc12` [Example 24, 2-amino-6-(4-fluorophenyl)-4-((2-propoxyethyl)amino) pyrido[2,3-d]pyrimidine-7(8H)-one], the CC50 at 2 days in the series “cytotoxicity assay (MTT)” was at least 25 µM. This compound also came in with an EC50 in series [1] of 1 to 5 µM.

In “cytotoxicity assay (MTT)”, `CCCCCNc1nc(N)nc2[nH]c(=O)c(-c3c(Cl)cccc3Cl)cc12` [Example 28, 2-amino-6-(2,6-dichlorophenyl)-4-(pentylamino)pyrido[2,3-d]pyrimidine-7(8H)-one] had a CC50 at 2 days of 10 to 25 µM. This compound gave an EC50 in series [1] of 1 to 5 µM.

In turn, `O=c1[nH]c2nc(Nc3ccccc3)[nH]c(=O)c2cc1-c1ccc(F)cc1` [Example 29, 6-(4-fluorophenyl)-2-(phenylamino)pyrido[2,3-d]pyrimidine-4,7(3H,8H)-dione] came in with a CC50 at 2 days in the series “cytotoxicity assay (MTT)” of 10 to 25 µM. The compound also yielded an EC50 in series [1] below 1 µM.

In turn, `O=c1[nH]c2nc(Nc3ccccc3)[nH]c(=O)c2cc1-c1ccccc1` [Example 30, 6-phenyl-2-(phenylamino)pyrido[2,3-d]pyrimidine-4,7(3H,8H)-dione] gave a CC50 at 2 days in “cytotoxicity assay (MTT)” of at least 25 µM. In series [1], this compound showed an EC50 of 5 to 22 µM.

The compound `COc1ccc(Nc2nc3[nH]c(=O)c(-c4ccc(F)cc4)cc3c(=O)[nH]2)cc1` [Example 31, 6-(4-fluorophenyl)-2-((4-methoxyphenyl)amino)pyrido[2,3-d]pyrimidine-4,7(3H,8H)-dione] registered a CC50 at 2 days in “cytotoxicity assay (MTT)” of at least 25 µM. In series [1], this compound returned an EC50 of 5 to 22 µM.

For `CCCOCCNc1nc(Oc2ccccc2)nc2[nH]c(=O)c(-c3ccc(F)cc3)cc12` [Example 32, 6-(4-fluorophenyl)-2-phenoxy-4-((2-propoxyethyl)amino) pyrido[2,3-d]pyrimidine-7(8H)-one], in the series “cytotoxicity assay (MTT)”, the CC50 at 2 days is at least 25 µM. This compound also showed an EC50 in series [1] of 1 to 5 µM.

On to `Nc1nc(Nc2ccccc2)nc2[nH]c(=O)c(-c3c(F)cccc3F)cc12` [Example 34, 4-amino-6-(2,6-difluorophenyl)-2-(phenylamino)pyrido[2,3-d]pyrimidine-7(8H)-one], for which the CC50 at 2 days in the series “cytotoxicity assay (MTT)” was below 10 µM. The same compound registered an EC50 in series [1] of 5 to 22 µM.

For the compound `Nc1nc(Nc2ccccc2)nc2[nH]c(=O)c(-c3c(Br)cccc3Br)cc12` [Example 36, 4-amino-6-(2,6-dibromophenyl)-2-(phenylamino)pyrido[2,3-d]pyrimidine-7(8H)-one], in “cytotoxicity assay (MTT)”, the CC50 at 2 days was at least 25 µM. Moreover, the EC50 in series [1] was 5 to 22 µM.

In the series “cytotoxicity assay (MTT)”, `Nc1nc(Nc2ccccc2)nc2[nH]c(=O)c(-c3ccccc3)cc12` [Example 37, 4-amino-6-phenyl-2-(phenylamino)pyrido[2,3-d]pyrimidine-7(8H)-one] registered a CC50 at 2 days of 10 to 25 µM. Moreover, the EC50 in series [1] is below 1 µM.

In turn, `CCCOCCNc1nc(N)nc2c1cc(-c1ccc(F)cc1)c(=O)n2C` [Example 41, 2-amino-6-(4-fluorophenyl)-8-methyl-4-((2-propoxyethyl)amino)pyrido[2,3-d]pyrimidine-7(8H)-one] yielded a CC50 at 2 days in the series “cytotoxicity assay (MTT)” of at least 25 µM. The concentration for a half-maximal effect (EC50) in series [1] fell in the range of 1 to 5 µM.

In the series “cytotoxicity assay (MTT)”, `CCCCCNc1nc(N)nc2c1cc(-c1ccc(F)cc1)c(=O)n2C` [Example 42, 2-amino-6-(4-fluorophenyl)-8-methyl-4-(pentylamino) pyrido[2,3-d]pyrimidine-7(8H)-one] came in with a CC50 at 2 days of 10 to 25 µM. The half-maximal effective concentration (EC50) in series [1] fell in the range of 5 to 22 µM.

For `Cn1c(=O)c(-c2ccc(F)cc2)cc2c(N3CCCC3)nc(N)nc21` [Example 43], in “cytotoxicity assay (MTT)”, the CC50 at 48 h is at least 25 µM. Moreover, in series [1], the EC50 lay within 5 to 22 µM.

In “cytotoxicity assay (MTT)”, `CCCOCCOc1nc(N)nc2c1cc(-c1c(Cl)cccc1Cl)c(=O)n2C` [Example 44, 2-amino-6-(2,6-dichlorophenyl)-8-methyl-4-(2-propoxyethoxy)pyrido[2,3-d]pyrimidine-7(8H)-one] returned a CC50 at 2 days of at least 25 µM. In addition, the EC50 in series [1] lay within 5 to 22 µM.

For the compound `COc1nc(N)nc2c1CC(c1c(Cl)cccc1Cl)C(=O)N2C` (stereo not drawn) [Example 45, 2-amino-6-(2,6-dichlorophenyl)-4-methoxy-8-methyl-5,6-dihydropyrido[2,3-d]pyrimidine-7(8H)-one], the CC50 at 2 days in “cytotoxicity assay (MTT)” is at least 25 µM. In addition, the EC50 in series [1] fell in the range of 5 to 22 µM.

`CCCOCCNc1nc(Nc2ccccc2)nc2c1cc(-c1c(Cl)cccc1Cl)c(=O)n2C` [Example 46, 6-(2,6-dichlorophenyl)-8-methyl-2-(phenylamino)-4-((2-propoxyethyl)amino)pyrido[2,3-d]pyrimidine-7(8H)-one]: the CC50 at 2 days in the series “cytotoxicity assay (MTT)” was at least 25 µM. For the same compound, in series [1], the EC50 fell in the range of 5 to 22 µM.

On to `Cn1c(=O)c(-c2c(F)cccc2F)cc2c(N)nc(Nc3ccccc3)nc21` [Example 47, 4-amino-6-(2,6-difluorophenyl)-8-methyl-2-(phenylamino)pyrido[2,3-d]pyrimidine-7(8H)-one], for which the CC50 at 2 days in “cytotoxicity assay (MTT)” is 10 to 25 µM. Further, the EC50 in series [1] was below 1 µM.

`Cn1c(=O)c(-c2c(Cl)cccc2Cl)cc2c(N)nc(Nc3ccccc3)nc21` [Example 48, 4-amino-6-(2,6-dichlorophenyl)-8-methyl-2-(phenylamino)pyrido[2,3-d]pyrimidine-7(8H)-one] showed a CC50 at 2 days in the series “cytotoxicity assay (MTT)” below 10 µM. This compound also returned an EC50 in series [1] below 1 µM.

In turn, `Cn1c(=O)c(-c2c(Br)cccc2Br)cc2c(N)nc(Nc3ccccc3)nc21` [Example 49, 4-amino-6-(2,6-bromophenyl)-8-methyl-2-(phenylamino)pyrido[2,3-d]pyrimidine-7(8H)-one] gave a CC50 at 2 days in the series “cytotoxicity assay (MTT)” below 10 µM. This compound also had an EC50 in series [1] below 1 µM.

`Cn1c(=O)c(-c2ccccc2)cc2c(N)nc(Nc3ccccc3)nc21` [Example 50, 4-amino-8-methyl-6-phenyl-2-(phenylamino)pyrido[2,3-d]pyrimidine-7(8H)-one]: the CC50 at 2 days in “cytotoxicity assay (MTT)” was in the range of 10 to 25 µM. In series [1], this compound came in with an EC50 below 1 µM.
